The values that follow come from ChEMBL document CHEMBL4477215, “Specific Correction of Alternative Survival Motor Neuron 2 Splicing by Small Molecules: Discovery of a Potential Novel Medicine To Treat Spinal Muscular Atrophy” (J Med Chem, 2016).

The source made the active and inactive calls. No cut-off for these calls is given here.

Data set [1] is described as follows: Mutagenicity in Salmonella typhimurium TA102 assessed as increase in revertant colonies after 2 days in presence of rat liver S9 fraction by Ames test relative to control. Particulars: salmonella enterica subsp. enterica serovar typhimurium, s9, 48 h. The data set is classed as toxicity. (The Ames test uses bacterial strains that need an amino acid and regain growth without it when mutated back.)

A short description of data set [2]: Mutagenicity in Salmonella typhimurium TA100 assessed as increase in revertant colonies after 2 days in presence of rat liver S9 fraction by Ames test relative to control. The data set is classed as toxicity. The settings on record: salmonella enterica subsp. enterica serovar typhimurium, s9, 48 h.
A short description of data set [3]: Mutagenicity in Salmonella typhimurium TA98 assessed as increase in revertant colonies after 2 days in presence of rat liver S9 fraction by Ames test relative to control. The settings on record: salmonella enterica subsp. enterica serovar typhimurium, s9, 48 h. The format is toxicity.
A short description of data set [4]: Mutagenicity in Salmonella typhimurium TA1535 assessed as increase in revertant colonies after 2 days in presence of rat liver S9 fraction by Ames test relative to control. The data set is classed as toxicity. The settings on record: salmonella enterica subsp. enterica serovar typhimurium, s9, 48 h.
Data set [5] can be described thus: Mutagenicity in Salmonella typhimurium TA97 assessed as increase in revertant colonies after 2 days in presence of rat liver S9 fraction by Ames test relative to control. The format is toxicity. Particulars: salmonella enterica subsp. enterica serovar typhimurium, s9, 48 h.
The species named for data set [6] is Homo sapiens. The experiment in a line: Inhibition of mRNA splicing of SMN2 exon 7 in fibroblasts derived from human SMA type 1/2/3 patient assessed as increase in SMN protein level after 48 hrs by HTRF assay. On the technique in general: Time-resolved FRET reads energy transfer from a long-lived donor to a nearby acceptor.
Data set [7] is filed under the species Homo sapiens. The experiment in a line: Inhibition of mRNA splicing of SMN2 exon 7 in GM03813 fibroblasts derived from human SMA type 1 patient after 24 hrs by RT-qPCR analysis. Background: In qPCR the cycle at which signal appears reflects the starting amount.
Data set [8] is described as follows: Octanol-aqueous phosphate buffer distribution coefficient, log D of the compound at pH 7.4 at 100 mM after 24 hrs by LC-MS based shake flask method. The data set is classed as physicochemical.
The next data set concerns the target P-gp (ABCB1) (Homo sapiens, UniProt P08183). The experiment in a line: Substrate activity at human P-gp assessed as efflux ratio by cell based assay. The settings on record: not told.
Another data set concerns NIH3T3. Kind of data set: Phototoxicity in mouse 3T3 cells in presence of UVA irradiation. The data set is classed as functional, cell-based. The settings on record: NIH3T3, light or radiation study.
Data set [9] in a line: Stability of the compound in pH 1 to 12 aqueous buffer. The data set is classed as physicochemical.
Data set [10] in a line: Stability of the compound in human plasma. The format is ADME, cell-free.
A short description of data set [11]: Stability in human plasma assessed as compound remaining after 5 hrs. The data set is classed as ADME, cell-free. Particulars: read-out: Stability.

Chain of P-gp (ABCB1) (P08183 whole entry): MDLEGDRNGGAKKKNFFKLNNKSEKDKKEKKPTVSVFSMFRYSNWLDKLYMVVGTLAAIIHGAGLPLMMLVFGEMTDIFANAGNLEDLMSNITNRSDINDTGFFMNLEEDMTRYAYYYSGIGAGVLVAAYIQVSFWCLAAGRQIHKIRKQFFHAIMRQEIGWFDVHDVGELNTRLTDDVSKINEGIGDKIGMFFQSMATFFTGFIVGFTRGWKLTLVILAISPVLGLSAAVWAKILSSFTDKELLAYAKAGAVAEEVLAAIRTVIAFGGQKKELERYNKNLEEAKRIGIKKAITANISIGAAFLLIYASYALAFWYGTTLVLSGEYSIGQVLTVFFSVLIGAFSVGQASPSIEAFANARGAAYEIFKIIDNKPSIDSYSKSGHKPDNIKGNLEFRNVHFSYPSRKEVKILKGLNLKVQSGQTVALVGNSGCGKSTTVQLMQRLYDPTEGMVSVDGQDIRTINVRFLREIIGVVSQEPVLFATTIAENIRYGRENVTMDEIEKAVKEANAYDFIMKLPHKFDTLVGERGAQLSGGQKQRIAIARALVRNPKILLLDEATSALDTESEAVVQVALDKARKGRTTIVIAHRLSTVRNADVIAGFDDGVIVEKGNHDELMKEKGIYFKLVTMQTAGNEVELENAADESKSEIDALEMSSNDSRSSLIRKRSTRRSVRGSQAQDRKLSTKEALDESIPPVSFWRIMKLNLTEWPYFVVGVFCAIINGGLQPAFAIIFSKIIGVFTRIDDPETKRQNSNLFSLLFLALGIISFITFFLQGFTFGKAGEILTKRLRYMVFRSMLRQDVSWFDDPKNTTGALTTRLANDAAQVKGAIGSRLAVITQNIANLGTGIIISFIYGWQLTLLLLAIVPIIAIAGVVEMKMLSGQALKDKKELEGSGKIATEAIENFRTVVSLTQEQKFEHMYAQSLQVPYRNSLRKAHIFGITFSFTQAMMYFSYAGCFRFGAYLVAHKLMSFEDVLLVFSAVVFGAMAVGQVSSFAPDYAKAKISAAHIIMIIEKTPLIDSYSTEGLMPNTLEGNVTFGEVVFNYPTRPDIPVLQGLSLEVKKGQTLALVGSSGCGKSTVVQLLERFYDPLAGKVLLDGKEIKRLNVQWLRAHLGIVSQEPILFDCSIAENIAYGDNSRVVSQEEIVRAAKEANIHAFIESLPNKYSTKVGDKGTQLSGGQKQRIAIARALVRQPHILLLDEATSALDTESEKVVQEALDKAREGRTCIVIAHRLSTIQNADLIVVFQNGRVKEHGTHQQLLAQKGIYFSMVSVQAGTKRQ

With `CN1CCN(c2ccc3nc(-c4ccc5c(c4)ncn5C)cc(=O)n3c2)CC1`, the fold change (FC) in [1] is less than 1.5; in [2] it was less than 1.5; in [3], less than 2; in data set [4], less than 2; in data set [5], less than 1.5. For the same molecule, the EC1.5 entry in the data set filed under Homo sapiens [6] and in the data set listed under Homo sapiens [7] was “inactive” in each case.
One may read the logD as the decadic logarithm of the distribution of all forms, ionised or not, between an organic phase and buffer at a given pH. Lower therefore signals a more hydrophilic compound. For orientation: efflux ratio means the permeability from basolateral to apical divided by that in the opposite direction, in the common usage. Consider `CCN1CCC(c2cc(C)c3nc(-c4cc5c(C)nc(C)cn5n4)cc(=O)n3c2)CC1`, for which the Activity entry in [1], in data set [2], in [3], in data set [4] and in [5] was “Non-Toxic” each time. Also, the EC1.5 in the data set filed under Homo sapiens [6] was 84 nM; in the data set listed under Homo sapiens [7], 30 nM. This molecule returned a log distribution coefficient (logD) at 24 h in data set [8] of 1.87. The efflux ratio at P-gp (ABCB1) worked out at 1.4.
For `Cc1cn2cc(-c3cc(=O)n4cc(N5CCC(N6CCCC6)CC5)ccc4n3)cc(C(F)(F)F)c2n1`, in the data set filed under Homo sapiens [6], the EC1.5 stood at 76 nM. The same molecule returned a logD at 24 h in data set [8] of 1.45. Besides, on P-gp (ABCB1), the efflux ratio was 8.5.
On to `CCc1nc(C)cn2nc(-c3cc(=O)n4cc(C5=CCNCC5)cc(C)c4n3)cc12`, for which the Activity entry in data set [1], in [2], in data set [3], in [4] and in data set [5] was “Non-Toxic” throughout. Also, the results for the EC1.5 in the data set filed under Homo sapiens [6] and in the data set filed under Homo sapiens [7] were 15 nM and 6 nM, respectively.
Broadly, the IC50 is the concentration needed to halve the response being measured. As to `Cc1cn2nc(-c3cc(=O)n4cc(N5CCN(C)CC5)ccc4n3)cc2c(C)n1`, the Activity entry in [1], in [2], in data set [3], in data set [4] and in [5] was “Non-Toxic” in each case. Besides, the IC50 in the data set on NIH3T3 was determined as 2900 nM. Moreover, the Stability result in [9] and in [10] was “Stable” each time. Besides, the results for the EC1.5 in the data set filed under Homo sapiens [6] and in the data set filed under Homo sapiens [7] were 170 nM and 92 nM, respectively.
In the case of `Cc1nc2c(F)cc(-c3cc(=O)n4cc(N5CCN(C)CC5)ccc4n3)cc2o1`, the fold change (FC) was less than 1.5 in data set [1]; less than 1.5 in [2]; less than 2 in data set [3]; less than 2 in data set [4]; less than 1.5 in data set [5]. In addition, the results for the EC1.5 in the data set listed under Homo sapiens [6] and in the data set listed under Homo sapiens [7] were 13 nM and 3 nM, respectively. Also, the logD at 24 h in data set [8] turned out to be 2.46. Moreover, the efflux ratio at P-gp (ABCB1) was 1.1.
Turning to `Cc1nc2c(F)cc(-c3cc(=O)n4cc(N5CCNCC5)ccc4n3)cc2o1`, the fold change (FC) in [1] is less than 1.5; in [2], less than 1.5; in [3], less than 2; in [4], less than 2; in data set [5] it was less than 1.5. The results for the EC1.5 in the data set filed under Homo sapiens [6] and in the data set filed under Homo sapiens [7] were 4 nM and 1 nM, respectively.
Consider `Cc1cn2cc(-c3cc4ccc(F)cc4c(=O)o3)nc2c(C)n1`, for which the remaining at 5 h in data set [11] worked out at 30%.
For the molecule `CCN1CCN(c2ccc3cc(-c4cn5cc(C)nc(C)c5n4)c(=O)oc3c2)C[C@@H]1C`, the IC50 with NIH3T3 is 80 nM. Moreover, in data set [11], the remaining at 5 h was 93%.
Regarding `Cc1nc2ccc(-c3cc(=O)n4cc(N5CCN(C)CC5)ccc4n3)cc2o1`, the fold change (FC) in data set [1] is less than 1.5; in data set [2] it was less than 1.5; in [3], less than 2; in data set [4], less than 2; in data set [5], less than 1.5. Further, the EC1.5 in the data set filed under Homo sapiens [6] stood at 395 nM; in the data set filed under Homo sapiens [7], 148 nM.
As for `CCc1nc(C)cn2nc(-c3cc(=O)n4cc(N5CCN6CCC[C@H]6C5)ccc4n3)cc12`, the Activity result in data set [1], in data set [2], in data set [3], in data set [4] and in data set [5] was “Non-Toxic” each time. The EC1.5 in the data set listed under Homo sapiens [6] came to 163 nM; in the data set filed under Homo sapiens [7] it was 40 nM.
`Cc1nc2ccc(-c3cc(=O)n4cc(N5CCN(C)CC5)ccc4n3)cn2n1`: the fold change (FC) in [1] is less than 1.5; in data set [2] it was less than 1.5; in [3] it was less than 2; in data set [4], less than 2; in data set [5] it was less than 1.5. Further, the EC1.5 was found to be 820 nM in the data set filed under Homo sapiens [6] and 314 nM in the data set listed under Homo sapiens [7].
Consider `Cc1cn2cc(-c3cc(=O)n4cc(N5CCN(C)CC5)ccc4n3)ccc2n1`, for which the fold change (FC) is less than 1.5 in [1]; less than 1.5 in data set [2]; less than 2 in data set [3]; less than 2 in data set [4]; less than 1.5 in [5]. Besides, the EC1.5 in the data set filed under Homo sapiens [6] was 760 nM; in the data set filed under Homo sapiens [7], 182 nM.
Regarding `Cc1cn2cc(-c3cc(=O)n4cc(N5CCC(N6CCC6)CC5)ccc4n3)cc2c(C)n1`, in the data set filed under Homo sapiens [6], the EC1.5 came to 46 nM. The molecule also returned a logD at 24 h in data set [8] of 1.53. The efflux ratio on P-gp (ABCB1) was 6.6.
Turning to `Cc1cn2nc(-c3cc(=O)n4cc(C5CCN(C)CC5)cc(C)c4n3)cc2c(C)n1`, the Activity entry in [1], in data set [2], in data set [3], in data set [4] and in data set [5] was “Non-Toxic” in each case. The EC1.5 stood at 77 nM in the data set listed under Homo sapiens [6] and 57 nM in the data set filed under Homo sapiens [7]. Besides, the logD at 24 h in [8] stood at 1.82. For the same molecule, the efflux ratio on P-gp (ABCB1) is 1.2.
Regarding `CC(=O)c1cc2ccc(F)cc2c(=O)o1`, in [11], the remaining at 5 h came out at 16%.
For `Cc1cn2cc(-c3cc(=O)n4cc(N5CCNCC5)ccc4n3)cc(F)c2n1`, the Activity entry in data set [1], in data set [2], in [3], in data set [4] and in data set [5] was “Non-Toxic” throughout. Further, the EC1.5 in the data set listed under Homo sapiens [6] stood at 9 nM; in the data set listed under Homo sapiens [7], 1 nM.
For the molecule `Cc1cn2cc(-c3cc4ccc(N5CCN(C)CC5)cc4c(=O)o3)nc2c(C)n1`, the IC50 in the data set with NIH3T3 was 150 nM. Moreover, the remaining at 5 h in [11] turned out to be 55%.
As to `CN1CCN(c2ccc3nc(-c4ccc5nccn5c4)cc(=O)n3c2)CC1`, the fold change (FC) is less than 1.5 in [1]; less than 1.5 in data set [2]; less than 2 in data set [3]; less than 2 in data set [4]; less than 1.5 in data set [5]. The EC1.5 in the data set listed under Homo sapiens [6] came to 3400 nM; in the data set filed under Homo sapiens [7], 582 nM.
